Experimental data: US20240168030A1, “DIRECT FLUORESCENT GLYCAN LABELING” (BIO-TECHNE CORPORATION, priority 2019, published 2024)

Molecular target: T1, FUT7 (Homo sapiens, UniProt Q11130)
T1 sequence (Q11130 1-342): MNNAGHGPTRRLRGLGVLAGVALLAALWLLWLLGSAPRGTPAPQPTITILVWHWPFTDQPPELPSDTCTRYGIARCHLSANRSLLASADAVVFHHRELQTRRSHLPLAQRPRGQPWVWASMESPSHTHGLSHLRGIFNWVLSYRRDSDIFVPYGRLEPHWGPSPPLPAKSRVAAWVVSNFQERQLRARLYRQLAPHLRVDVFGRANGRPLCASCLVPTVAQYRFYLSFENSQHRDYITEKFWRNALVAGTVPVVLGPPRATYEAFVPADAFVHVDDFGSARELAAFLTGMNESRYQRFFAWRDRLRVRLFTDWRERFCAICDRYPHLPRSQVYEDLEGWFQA
Assay: Fluorescent labeling with fluorophore-conjugated fucose by FUT7
Format: biochemical
Design: key to Tolerance of the fluorophore by FUT7: +++: indicated by number of + signs; ++: indicated by number of + signs; indicated by number of + signs
Conditions: for Tolerance of the fluorophore by FUT7: fluorophore-conjugated fucose donor, acceptor GlcNAc of sialylactosamine, FIG. 9
Description: FIG. 9A-FIG. 9B show exemplary results of probing substrate glycans of various fucosyltransferases on fetuin and asialofetuin. FIG. 9A. Probing substrate glycans of fucosyltransferases with guanosine 5′-diphosphate activated Cy5 conjugated fucose (GDP-Cy5-Fuc). […] FUT9 labeled itself (indicated by an arrow in the gel). FIG. 9B. Tolerance of Alexa-Fluor®555 (555), Alexa-Fluor®488 (488), and Cy5 by the indicated fucosyltransferases. All reactions were incubated at 37° C. for 30 minutes and then separated on SDS-PAGE and imaged with silver staining (upper panels) and fluorescent imager (lower panels). M, molecular marker.
For a typical labeling reaction, 1 μg to 5 μg target protein was mixed with 0.2 nmol GDP-f-Fuc and 0.2 μg of a fucosyltransferase in 30 μL buffer of 25 mM Tris pH 7.5, 10 mM MnCl2. The mixture was incubated at 37° C. for 30 minutes. The reaction was then separated by sodium dodecyl sulfate—polyacrylamide gel electrophoresis (SDS-PAGE) and the gel was directly imaged using a fluorescent imager FluorChem M ProteinSimple, Bio-Techne, Minneapolis, MN), followed by imaging with traditional protein imaging methods such as silver staining or trichloroethanol (TCE) staining.
The four enzymes tolerated the three fluorophores to different levels.

**Q.** Which “Fluorophore preference of FUT7” value (among Cy5-, AlexaFluor® 488-, and AlexaFluor® 555-conjugated fucoses, FIG. 9B) does the source give for “guanosine 5′-diphosphate activated Alexa-Fluor®488 conjugated fucose [GDP-AF488-Fuc]” here?
**A.** preferred

**Q.** What about the “Tolerance of the fluorophore by FUT7” value of the same substance?
**A.** ++

**Q.** Which “Tolerance of the fluorophore by FUT7” value does the source give for “guanosine 5′-diphosphate activated Alexa-Fluor®555 conjugated fucose [GDP-AF555-Fuc]” here?
**A.** +
